The values that follow are results of earlier work, collected in patent publication US20250127711A1, “COMPOSITION AND METHOD FOR TREATING FUNGAL SKIN CONDITIONS AND INFLAMMATION” (CMPD Licensing, LLC, priority 2016, published 2025).

Data set [1] concerns glucocorticoid activity.
The test system of data set [2] is mineralocorticoid activity.

The structures appear in SMILES notation.

`C[C@H]1C[C@H]2[C@@H]3CCC4=CC(=O)C=C[C@]4(C)[C@@]3(F)[C@@H](O)C[C@]2(C)[C@@]1(O)C(=O)CCl` [Clobetasol]: in data set [1], the glucocorticoid activity result is listed as “high degree”. For the same molecule, the mineralocorticoid activity result in data set [2] is “slight degree”.
Consider `CC(=O)OCC(=O)[C@@]12OC(C)(C)O[C@@H]1C[C@H]1[C@@H]3C[C@H](F)C4=CC(=O)C=C[C@]4(C)[C@@]3(F)[C@@H](O)C[C@@]12C` [Fluocinonide], for which the solubility in ethanol entry (ethanol) is given as “slightly soluble”. Also, for the setting “water”, the solubility in water entry is “practically insoluble”.
